Patent US11718610B2, “Compounds containing benzosultam” (MEDSHINE DISCOVERY INC., priority 2020, dated 2023)
Read-outs that look alike come from different tables or passages of the source. One block for each molecule: values may come before it.

How the values were obtained:
[1] = system: Calu-6 cells; assay: Calu-6 (Kras Q61K) antiproliferative activity experiment (CellTiterGlo); format: cell-based, human; conditions: cultured three days
Protocol: Experimental Embodiment 1: Calu-6 (Kras^Q61K) Antiproliferative Activity Experiment
(1) cell culture medium: 88% RPMI-1640, 10% fetal bovine serum, 1% L-glutamine and 1% penicillin-streptomycin;
(2) culture medium, trypsin and DPBS were preheated in a 37° C. water bath;
(3) the original culture medium was removed in the cell culture flask and washed once with 6 mL of PBS;
(4) 3.5 mL of trypsin was added to the cell culture flask, and the cell culture flask was shaken gently, and the trypsin was removed after full contact with the cell, and then the culture flask was placed into a 37° C. incubator containing 5% CO2 for about 1 minute;
(5) the cells were resuspended with 10 mL of cell culture medium, and about 0.6 mL of cell suspension (ViCell XR) was taken out for counting;
(§1) (6) the cell suspension was diluted with culture medium to a cell density required for plating of 2.5×10^4 cells per mL;
(7) 100 μL of PBS was added to each well around the cell plate, and 40 μL of cell suspension was added to the other wells, and placed in a 37° C. incubator containing 5% CO2 for overnight culture.
(§2) (8) The required cell amount and culture medium were taken based on the new T75 culture flask for continued culture.
(§3) (1) the compound to be tested was prepared into […] solution with DMSO;
(2) 9 μL of the compound was taken and added to Echo shallow well plate (Labcyte, #LP-0200), and the shallow well plate was centrifuged at 1000 rpm for 10 seconds;
(3) DPBS at the periphery of the cell plate was sucked out;
(4) the compound was gradient diluted and administrated with Echo, and 10 concentration gradients of each compound were diluted, and 100 nL of the diluent was added to the 384 cell plate separately, and then the cell plate was put back to the incubator and cultured for three days;
(5) then 100 μL of DPBS was added to the periphery of the cell plate.
(1) CTG was added and the plate was read: 20 μL of CellTiterGlo was added to each well of the cell plate, and the cell plate was shaken in the dark for 10 min. and the plate was read on Envision.

[2] = system: ERK phosphorylation in Calu-6 cells; assay: Calu-6 (Kras Q61K) ERK phosphorylation inhibition experiment (HTRF); format: cell-based, human; conditions: 1 hour incubation with compound
Protocol: Experimental Embodiment 5: Calu-6 (Kras^Q61K) ERK Phosphorylation Inhibition Experiment
1) the cells were resuscitated and cultured to logarithmic growth phase, digested with trypsin, seeded in 96-well plates with 30000 cells per well, and incubated overnight in an incubator.
2) 1 μL of gradient compound dissolved with DMSO was added to a 96-well plate and placed back into an incubator to incubate for 1 hour.
3) The cell plates were removed out, and the culture medium was poured off, and 50 μL of cell lysate (with 1% blocking peptide) was added to each well.
4) The lysate plate was mixed at 500 rpm and incubated and lysed at room temperature for 30 minutes.
5) The antibody mixture in the kit was prepared at a ratio of 1:1:38.
6) 16 μL of cell lysate was transferred to the HTRF plate per well, then the 4 μL of the configured antibody mixture was added thereto.
7) After incubation overnight, the plate was read with Envision, and the fitted curve was obtained according to the ratio (the ratio of fluorescence intensity of […]) and the EC50 was calculated according to the four-parameter fitting formula Y=Bottom+(Top−Bottom)/(1+10^((Log EC50−X)*HillSlope)) of Graphpad.

[3] = Pharmacokinetics of single intravenous and oral administration in mice; format: in vivo; conditions: 50 mg/kg/day, single oral administration, 50 mg/kg/day; for Cmax: read-out: Maximum plasma drug concentration Cmax; for Tmax: read-out: Peak time Tmax
Protocol: Experimental Embodiment 6: Pharmacokinetics Study of Single Intravenous and Oral Administration in Mice and Dogs
This experiment was aimed to study the pharmacokinetics of the test compound in mice and dogs in vivo after a single oral administration of the compound.
After intravenous or oral administration, blood samples were collected and the actual blood collection time was recorded. After the blood sample was collected, the sample was immediately transferred to a labeled centrifuge tube containing K2-EDTA, and then the plasma was taken after centrifugation. The plasma was transferred to a precooled centrifuge tube, quickly frozen in dry ice, and stored in an ultra-low temperature refrigerator at −70±10° C. until LC-MS/MS analysis.
Pharmacokinetic software was used to process the plasma drug concentration data of the compound with […] model. The peak concentration (Cmax) and peak time (Tmax), as well as the end time of quantification, were obtained directly from the plasma drug concentration-time graph. The following pharmacokinetic parameters were calculated by logarithmic linear trapezoidal method: half-life (T1/2), apparent distribution volume (Vdss) and clearance rate (Cl), and the area under the time-plasma concentration curve from 0 to the end time point (AUC0-last).

[4] = system: Colo205 cells; assay: Colo205 (BRAF V600E) antiproliferative activity experiment (CellTiter-glo); format: cell-based; conditions: Homo sapiens, COLO 205, 72 h, cultured 3 days
Protocol: Experimental Embodiment 4: Colo205 (BRAF^V600E) Antiproliferative Activity Experiment
Cell line COLO205 (purchased from Procell), RPMI1640 culture medium, penicillin/streptomycin antibiotics were purchased from Vicente, and fetal bovine serum was purchased from Biosera. CellTiter-glo (cell viability chemiluminescence detection reagent) reagent was purchased from Promega.
COLO205 cells were seeded in a white 96-well plate with […] of cell suspension per well containing 3000 of COLO205 cells. The cell plate was placed in a carbon dioxide incubator and cultured overnight. The compound to be tested was diluted 3-fold to the 9th concentration with a pipette, that is, diluted from […], and a double-duplicate experiment was set-up. 78 μmol of culture medium was added to the middle plate, then 2 μmol of gradient dilution compound per well was transferred to the middle plate according to the corresponding position, and 20 μmol of per well was mixed and transferred to the cell plate. The concentration of the compound transferred to the cell plate ranged from 1 μmol to 0.15 nmol. The cell plate was placed in a carbon dioxide incubator and cultured for 3 days. Another cell plate was prepared, and the signal value was read as the maximum value (max value in the following equation) on the day of administration to participate in data analysis. 25 μmol of cell viability chemiluminescence detection reagent was added to each well of the cell plate and incubated at room temperature for 10 minutes to stabilize the luminescence signal. A multi-marker analyzer reading was used. After the incubation of the cell plate added with the compound was finished, 25 μmol of cell viability chemiluminescence detection reagent was added to each well of the cell plate and incubated at room temperature for 10 minutes to stabilize the luminescence signal. A multi-marker analyzer reading was used.
(§4) The equation (Sample−Min)/(Max−Min)*100% was used to convert the original data into inhibition rate, and the IC50 value could be obtained by curve fitting with four parameters (obtained by “log (inhibitor) vs. response—variable slope” mode in GraphPad Prism).

[5] = system: HCT116 cells; assay: HCT116 (Kras G13D) antiproliferative activity experiment (CellTiter Glo); format: cell-based; conditions: Homo sapiens, HCT-116, 72 h, cultured 3 days
Protocol: Experimental Embodiment 2: HCT116 (Kras^G13D) Antiproliferative Activity Experiment
(1) cell culture medium: 89% Mc′Coy 5A, 10% fetal bovine serum and 1% penicillin-streptomycin;
(2) culture medium and trypsin were preheated in a 37° C. water bath;
(3) the culture medium was removed in the cell culture flask and washed once with 1 mL of trypsin;
(4) 1 mL of trypsin was added to the cell culture flask, and the cell culture flask was shaken gently, and the trypsin was removed after full contact with the cell, and then the culture flask was placed into a 37° C. incubator containing 5% CO2 for about 1 minute;
(5) the cells were resuspended with 2 mL of cell culture medium, and about 0.01 mL of cell suspension was taken out for counting;
as §1
(7) 100 μL of culture medium was added to each well around the cell plate, and 80 μL of cell suspension was added to the other wells, and placed in a 37° C. incubator containing 5% CO2 for overnight culture.
as §2, §3
(2) 9 concentration gradients and 3-fold dilutions were performed on the compounds, that is, a double-duplicate experiment was set from 6 mmol to 2.7 μmol, and 78 μL of culture medium was added to the middle plate, and then 2 μL of gradient diluted compound per well was transferred to the middle plate according to the corresponding position, and after mixing, 20 μL per well was transferred to the cell plate, and the final concentration of the compound transferred to the cell plate was 30 μmol to 13.7 nmol. The cell plate was placed in a carbon dioxide incubator and cultured for another 3 days.
(1) CTG was added and the plate was read: 20 μL of CellTiter Glo was added to each well of the cell plate, and the cell plate was shaken in the dark for 10 min;
(2) plates were read on Victor Nivo.
The equation (Sample-Min)/(Max-Min)*100% was used to convert the original data into inhibition rate, and the IC50 value could be obtained by curve fitting with four parameters (obtained by “log (inhibitor) vs. response—variable slope” mode in GraphPad Prism).

[6] = system: A375 cells; assay: A375 (BRAF V600E) antiproliferative activity experiment (CellTiter-glo); format: cell-based; conditions: Homo sapiens, A-375, 120 h, cultured 5 days
Protocol: Experimental Embodiment 3: A375 (BRAF^V600E) Antiproliferative Activity Experiment
Cell line A375 (purchased from Procell). DMEM culture medium, penicillin/streptomycin antibiotics were purchased from Vicente, and fetal bovine serum was purchased from Biosera. CellTiter-glo (cell viability chemiluminescence detection reagent) reagent was purchased from Promega.
A375 cells were seeded in a white 96 well plate with […] of cell suspension per well containing 2000 of A375 cells. The cell plate was placed in a carbon dioxide incubator and cultured overnight. The compound to be tested was diluted 3-fold to the 9th concentration with a pipette, that is, diluted from 6 mmol to 0.91 μmol, and a double-duplicate experiment was set-up, 78 μmol of culture medium was added to the middle plate, then 2 μmol of gradient dilution compound per well was transferred to the middle plate according to the corresponding position, and 20 μmol per well was mixed and transferred to the cell plate. The concentration of the compound transferred to the cell plate ranged from 30 μmol to 4.57 nmol. The cell plate was placed in a carbon dioxide incubator and cultured for 5 days. Another cell plate was prepared, and the signal value was read as the maximum value (max value in the following equation) on the day of administration to participate in data analysis, 25 μmol of cell viability chemiluminescence detection reagent was added to each well of the cell plate and incubated at room temperature for 10 minutes to stabilize the luminescence signal. A multi-marker analyzer reading was used. After the incubation of the cell plate added with the compound was finished, 25 μmol of cell viability chemiluminescence detection reagent was added to each well of the cell plate and incubated at room temperature for 10 minutes to stabilize the luminescence signal. A multi-marker analyzer reading was used.
as §4

SMILES: COc1cc(F)cc([C@@H](CO)NC(=O)[C@@H](C)N2Cc3ccc(-c4nc(N[C@@H]5CCOC[C@H]5F)ncc4Cl)cc3S2(=O)=O)c1 [Compound 2]
- IC50 ([1]; Homo sapiens, Calu-6, 72 h): 222 nM
- IC50 ([2]; Homo sapiens, Calu-6, 1 h): 13.1 nM

SMILES: COc1cc(F)cc([C@@H](CO)NC(=O)[C@@H](C)N2Cc3ccc(-c4nc(N[C@H]5CCOC[C@H]5F)ncc4Br)cc3S2(=O)=O)c1 [Compound 13]
- IC50 [4]: 21 nM
- IC50 [5]: 138 nM
- IC50 [6]: 17 nM
- IC50 ([2]; Homo sapiens, Calu-6, 1 h): 7.84 nM

SMILES: Cc1cccc([C@@H](CO)NC(=O)[C@@H](C)N2Cc3ccc(-c4nc(NC5CCOCC5)ncc4Cl)cc3S2(=O)=O)c1 [Compound 7]
- IC50 ([1]; Homo sapiens, Calu-6, 72 h): 210 nM
- IC50 ([2]; Homo sapiens, Calu-6, 1 h): 4.39 nM

SMILES: COc1cc(F)cc([C@@H](CO)NC(=O)CN2Cc3ccc(-c4nc(NC5CCOCC5)ncc4Cl)cc3S2(=O)=O)c1 [Compound 10]
- IC50 ([1]; Homo sapiens, Calu-6, 72 h): 253 nM
- IC50 ([2]; Homo sapiens, Calu-6, 1 h): 3.03 nM
- Cmax ([3]; mouse, plasma, po): 34.6 µM
- Tmax ([3]; mouse, plasma): 1 h

SMILES: [2H]C1([2H])CC(Nc2ncc(Br)c(-c3ccc4c(c3)S(=O)(=O)N([C@H](C)C(=O)N[C@H](CO)c3cc(F)cc(OC)c3)C4)n2)CC([2H])([2H])O1 [Compound 12]
- IC50 [4]: 21 nM
- IC50 [5]: 112 nM
- IC50 [6]: 16 nM
- IC50 ([2]; Homo sapiens, Calu-6, 1 h): 6.91 nM

SMILES: C[C@H](C(=O)N[C@H](CO)c1cccc(N(C)C)n1)N1Cc2ccc(-c3nc(NC4CCOCC4)ncc3Cl)cc2S1(=O)=O [Compound 8]
- IC50 ([1]; Homo sapiens, Calu-6, 72 h): 313 nM

Continued, values first:

- IC50 ([1]; Homo sapiens, Calu-6, 72 h): 222 nM
- IC50 ([2]; Homo sapiens, Calu-6, 1 h): 6.92 nM
- Cmax ([3]; mouse, plasma, po): 90.5 µM
- Tmax ([3]; mouse, plasma): 0.75 h
SMILES: C[C@H](C(=O)N[C@H](CO)c1cc(F)cc(Cl)c1)N1Cc2ccc(-c3nc(NC4CCOCC4)ncc3Cl)cc2S1(=O)=O [Compound 5]

- IC50 [1]: 239 nM
- IC50 [2]: 6.36 nM
- Peak time Tmax [3]: 1 h
- Cmax [3]: 182 µM
SMILES: COc1cc(F)cc([C@@H](CO)NC(=O)[C@@H](C)N2Cc3ccc(-c4nc(NC5CCOCC5)ncc4Cl)cc3S2(=O)=O)c1 [Compound 4]

- IC50 ([1]; Homo sapiens, Calu-6, 72 h): 508 nM
SMILES: COc1cc(F)cc([C@@H](C)NC(=O)[C@@H](CO)N2Cc3ccc(-c4nc(NC5CCOCC5)ncc4Cl)cc3S2(=O)=O)c1 [Compound 6]
